# Assay results as given in US20130338130A1 (priority 2009, published 2013).
# Where “and” joins values, the source holds several entries; their conditions need not be identical. Equal values may be shown once. Read-outs that look alike come from different tables or passages of the source.
# Columns and labels:
# [1] = tested on: ATCC strain 43300 Staphylococcus aureus; experiment: MRSA survival in MSM and oxacillin, simulated course of treatment (Example 3); conditions: for survival (Log cfu/ml): 6 μg/ml oxacillin added daily + MSM (% in label)
# Method: After 24 hours, another 6 μg/ml oxacillin was added to the incubations, bringing the total amount of oxacillin added to 12 μg/ml. […] This experimental paradigm simulates the repeated application of antibiotic that a subject would receive over a course of treatment.
# USP<51> Antimicrobial Effectiveness protocol was used as the template experimental paradigm. […] All concentrations were plated out to the 10^−7 dilutions to ascertain cfu/ml. […] This concentration is the industry standard for determining MRSA resistance in clinical applications. An additional 6 μg/ml oxacillin was added daily.
# Material was calculated on a 10 ml volume. Sterile oxacillin was added to each experimental condition daily at 300 μl from a 30 mg/10 ml concentration giving it a final concentration of 6 μg/ml.
# All tubes were inoculated at a dilution of MRSA giving a final concentration of colony forming units of 9.14×10^5/ml (Log=5.96). The tubes were incubated at 25° C. and mixed periodically. Plating was done at 48 hours and 7 days. […] These were serial diluted down to 10^−7 with 1 ml placed in a sterile petri dish at each dilution point. 20 mls of TSA was added to each dilution and swirled and allowed to solidify. All dilutions were placed in a 35° C. incubator for 24 hours. Plates were counted and colony counts changed into log format. A positive and negative control was ascertained.
# [2] = tested on: ATCC strain 43300 Staphylococcus aureus; experiment: MSM alone, MRSA survival (Example 1); conditions: 5-16% MSM alone, no antibiotic, 24 or 48 hour
# Method: USP<51> Antimicrobial Effectiveness protocol was used as the template experimental paradigm. […] All concentrations were plated out to the 10^−7 dilutions to ascertain cfu/ml.
# Material was calculated on a 10 ml volume.
# All tubes were inoculated with a dilution of MRSA giving a final level of colony forming units of 2.0×10^5/ml (Log=5.23). The tubes were incubated at 25° C. and mixed periodically. Plating was done at 24 and 48 hours. Each condition was plated by diluting 1 ml of growth material into 9 ml of MLB diluent broth. This mixture was serial diluted down to 10^−7, and 1 ml placed in a sterile petri dish at each dilution point. 20 mls of TSA was added to each dilution, swirled and allowed to solidify. All dilutions were placed in a 35° C. incubator for 24 hours. Bacterial colonies on each plate were counted and colony counts changed into log format. A positive and negative control was ascertained.
# [3] = tested on: ATCC strain 43300 Staphylococcus aureus; experiment: MRSA survival in MSM, DMSO and oxacillin, 48 hours (Example 2)
# Method: All concentrations were plated out to the 10^−7 dilutions to ascertain cfu/ml.
# Material was calculated on a 10 ml volume. […] Sterile DMSO was added to appropriate tubes. Sterile oxacillin was added to appropriate tubes at 300 microliters from a 30 mg/10 ml concentration giving it a final concentration of 6 μg/ml. Control conditions were Lactose Broth inoculated with ATCC strain 43300 Staphylococcus aureus with and without 6 μg/ml oxacillin, as well as uninoculated negative controls to show no signs of contamination.
# Appropriate tubes were inoculated at a dilution of ATCC strain 43300 Staphylococcus aureus giving a final concentration of colony forming units of 3.15×10^7/ml (Log=7.49). The tubes were incubated at 25° C. and mixed periodically. Plating was done at 48 hours. […] They were serial diluted down to 10^−7 with 1 ml placed in a sterile petri dish at each dilution point. Then 20 mls of TSA was added to each dilution and swirled and allowed to solidify. All dilutions were placed in a 35° C. incubator for 24 hours. Plates were counted and colony counts changed into log format. A positive and negative control was ascertained.
# [4] = tested on: ATCC strain 43300 Staphylococcus aureus; conditions: for survival (cfu/ml): 12 μg/ml oxacillin (re-added every 24 hours) + MSM (% in label), three columns = triplicate platings, inoculum 3.3×10^5/ml
# Method: Additional antibiotic was added every 24 hours. The growth periods tested were 24 (see FIG. 4), 48, 72, 96 and 120 hours.
# USP<51> Antimicrobial Effectiveness protocol was used as the template experimental paradigm. […] All concentrations were plated out to the 10^−7 dilutions to ascertain cfu/ml. […] Additional antibiotic was added at the initial concentration every 24 hours.
# ATCC strain 43300 Staphylococcus aureus was streaked out for isolations. An isolated colony was chosen, streaked again and incubated. Isolate was chosen and then diluted to a McFarland standard of one. The estimated value was then taken to inoculate tubes containing growth media and 12, 30 or 60 μg/ml oxacillin with approximately 10^5 cfu/ml. These tubes were incubated and plated for counting cfu. A clone having no observed log reduction in cfu was selected for the rest of the experiment.
# Material was calculated on a 10 ml volume. Sterile oxacillin was added to each experimental condition to a final concentration of 12, 30 or 60 μg/ml antibiotic.
# All tubes were then inoculated with a dilution of the selected ATCC strain 43300 Staphylococcus aureus clone giving a final level of colony forming units of 3.3×10^5/ml (log=5.52). The tubes were incubated at 25° C. and mixed periodically. Antibiotic was re-inoculated every 24 hours at the initial concentration to maintain pressure on the organism. Plating was done at 24, 48, 72, and 120 hours. Each condition was plated by diluting 1 ml of growth material into 9 ml of MLB diluent broth. […] This mixture was serial diluted down to 10^−7 with 1 ml placed in triplicate in a sterile petri dish at each dilution point. 20 mls of TSA was added to each dilution, swirled and allowed to solidify. All dilutions were placed in a 35° C. incubator for 24 to 72 hours. Bacterial colonies on each plate were counted and the average taken then changed into log format. Any cfu/ml observed greater than 3.3×10^5 (log=5.5) were recorded as >3.3×10^5.
# The tube was then taken out of the experiment and tested for ATCC strain 43300 Staphylococcus growth. The tube was spun down at 5000 rpm for 10 minutes. The supernatant was then decanted into 90 mls of Mueller-Hinton broth with 6 μg/ml oxacillin. This is for enrichment and the recovery of any MRSA cells that may be present whether healthy or stressed. The pellet had 10 mls Mueller-Hinton broth with 6 μg/ml oxacillin added to it to recover any cells that may be present. Both vessels were incubated at 35° C. for 48 hours followed by plating every 24 hours. Each vessel was plated at 10 dilutions to obtain a 1 cfu detection limit.
structure (smiles),measurement,setting,value
"CS(C)(=O)=O [MSM, Methylsulfonylmethane]",survival (Log cfu/ml),"[1]; 48 hours, inoculum Log=5.96, listed as 5% MSM",7.0 Log cfu/ml
same,survival (Log cfu/ml),"[1]; 48 hours, inoculum Log=5.96, listed as 8% MSM",4.0 Log cfu/ml
same,survival (Log cfu/ml),"[1]; 48 hours, inoculum Log=5.96, listed as 10% MSM",4.6 Log cfu/ml
same,survival (Log cfu/ml),"[1]; 48 hours, inoculum Log=5.96, listed as 12% MSM",3.8 Log cfu/ml
same,survival (Log cfu/ml),"[1]; 48 hours, inoculum Log=5.96, listed as 13% MSM",3.8 Log cfu/ml
same,survival (Log cfu/ml),"[1]; 48 hours, inoculum Log=5.96, listed as 14% MSM",4.0 Log cfu/ml
same,survival (Log cfu/ml),"[1]; 48 hours, inoculum Log=5.96, listed as 15% MSM",4.1 Log cfu/ml
same,survival (Log cfu/ml),"[1]; 48 hours, inoculum Log=5.96, listed as 16% MSM",5.3 Log cfu/ml
same,survival (Log cfu/ml),"[1]; 7 days, listed as 5% MSM",7.9 Log cfu/ml
same,survival (Log cfu/ml),"[1]; 7 days, listed as 8% MSM",7.6 Log cfu/ml
same,survival (Log cfu/ml),"[1]; 7 days, listed as 10% MSM",7.2 Log cfu/ml
same,survival (Log cfu/ml),"[1]; 7 days, listed as 12% MSM",7.1 Log cfu/ml
same,survival (Log cfu/ml),"[1]; 7 days, listed as 13% MSM",7.2 Log cfu/ml
same,survival (Log cfu/ml),"[1]; 7 days, listed as 14% MSM",7.0 Log cfu/ml
same,survival (Log cfu/ml),"[1]; 7 days, listed as 15% MSM",6.9 Log cfu/ml
same,survival (Log cfu/ml),"[1]; 7 days, listed as 16% MSM",1.0 Log cfu/ml
same,surviving bacteria,"[1]; 6 μg/ml oxacillin added each day, day 7",no surviving bacteria
same,effect on survival,[2],none of the concentrations of MSM tested had any effect on the survival
same,log reduction in cfu/ml,[3]; MA condition (6 μg/ml oxacillin + MSM),2.0 log
same,maximum log reduction in cfu/ml,"[3]; MA condition, 10-16% MSM",2.9 log
same,log reduction in cfu/ml,"[3]; MDA condition (6 μg/ml oxacillin + MSM + 1% DMSO), listed as 9% MSM",1.6 log
same,log reduction in cfu/ml,"[3]; MDA condition (6 μg/ml oxacillin + MSM + 1% DMSO), listed as 10-16% MSM",2.0 log
same,survival (cfu/ml),"[4]; 24 hours, listed as 15% MSM",1.35 × 10^4 cfu/ml and 1.30 × 10^4 cfu/ml
same,survival (cfu/ml),"[4]; 24 hours, listed as 16% MSM",7.6 × 10^3 cfu/ml and 7.4 × 10^3 cfu/ml
same,"survival, Average Log","[4]; 12 μg/ml oxacillin + MSM (% in label), 24 hours, listed as 5% MSM",3.91 Log
same,"survival, Average Log","[4]; 12 μg/ml oxacillin + MSM (% in label), 24 hours, listed as 6% MSM",3.92 Log
same,"survival, Average Log","[4]; 12 μg/ml oxacillin + MSM (% in label), 24 hours, listed as 7% MSM",3.91 Log
same,"survival, Average Log","[4]; 12 μg/ml oxacillin + MSM (% in label), 24 hours, listed as 8% MSM",3.82 Log
same,"survival, Average Log","[4]; 12 μg/ml oxacillin + MSM (% in label), 24 hours, listed as 9% MSM",3.72 Log
same,"survival, Average Log","[4]; 12 μg/ml oxacillin + MSM (% in label), 24 hours, listed as 10% MSM",3.76 Log
same,"survival, Average Log","[4]; 12 μg/ml oxacillin + MSM (% in label), 24 hours, listed as 11% MSM",3.91 Log
same,"survival, Average Log","[4]; 12 μg/ml oxacillin + MSM (% in label), 24 hours, listed as 12% MSM",3.85 Log
same,"survival, Average Log","[4]; 12 μg/ml oxacillin + MSM (% in label), 24 hours, listed as 13% MSM",3.95 Log
same,"survival, Average Log","[4]; 12 μg/ml oxacillin + MSM (% in label), 24 hours, listed as 14% MSM",4.00 Log
same,"survival, Average Log","[4]; 12 μg/ml oxacillin + MSM (% in label), 24 hours, listed as 15% MSM",4.11 Log
same,"survival, Average Log","[4]; 12 μg/ml oxacillin + MSM (% in label), 24 hours, listed as 16% MSM",3.88 Log
same,"survival, Average Log","[4]; 12 μg/ml oxacillin + MSM (% in label), 48 hours, listed as 5% MSM",3.6 Log
same,"survival, Average Log","[4]; 12 μg/ml oxacillin + MSM (% in label), 48 hours, listed as 6% MSM",3.2 Log
same,"survival, Average Log","[4]; 12 μg/ml oxacillin + MSM (% in label), 48 hours, listed as 7% MSM",3.9 Log
same,"survival, Average Log","[4]; 12 μg/ml oxacillin + MSM (% in label), 48 hours, listed as 8% MSM",3.7 Log
same,"survival, Average Log","[4]; 12 μg/ml oxacillin + MSM (% in label), 48 hours, listed as 9% MSM",3.4 Log
same,"survival, Average Log","[4]; 12 μg/ml oxacillin + MSM (% in label), 48 hours, listed as 10% MSM",2.7 Log
same,"survival, Average Log","[4]; 12 μg/ml oxacillin + MSM (% in label), 48 hours, listed as 11% MSM",2.8 Log
same,"survival, Average Log","[4]; 12 μg/ml oxacillin + MSM (% in label), 48 hours, listed as 12% MSM",2.8 Log
same,"survival, Average Log","[4]; 12 μg/ml oxacillin + MSM (% in label), 48 hours, listed as 13% MSM",2.8 Log
same,"survival, Average Log","[4]; 12 μg/ml oxacillin + MSM (% in label), 48 hours, listed as 14% MSM",1.0 Log
same,"survival, Average Log","[4]; 12 μg/ml oxacillin + MSM (% in label), 48 hours, listed as 15% MSM",3.7 Log
same,"survival, Average Log","[4]; 12 μg/ml oxacillin + MSM (% in label), 48 hours, listed as 16% MSM",3.7 Log
same,"survival, Average Log","[4]; 12 μg/ml oxacillin + MSM (% in label), 72 hours, listed as 5% MSM",5.5 Log
same,"survival, Average Log","[4]; 12 μg/ml oxacillin + MSM (% in label), 72 hours, listed as 6% MSM",5.5 Log
same,"survival, Average Log","[4]; 12 μg/ml oxacillin + MSM (% in label), 72 hours, listed as 7% MSM",5.5 Log
same,"survival, Average Log","[4]; 12 μg/ml oxacillin + MSM (% in label), 72 hours, listed as 8% MSM",5.5 Log
same,"survival, Average Log","[4]; 12 μg/ml oxacillin + MSM (% in label), 72 hours, listed as 9% MSM",4.5 Log
same,"survival, Average Log","[4]; 12 μg/ml oxacillin + MSM (% in label), 72 hours, listed as 10% MSM",4.0 Log
same,"survival, Average Log","[4]; 12 μg/ml oxacillin + MSM (% in label), 72 hours, listed as 11% MSM",3.6 Log
same,"survival, Average Log","[4]; 12 μg/ml oxacillin + MSM (% in label), 72 hours, listed as 12% MSM",3.1 Log
same,"survival, Average Log","[4]; 12 μg/ml oxacillin + MSM (% in label), 72 hours, listed as 13% MSM",2.7 Log
same,"survival, Average Log","[4]; 12 μg/ml oxacillin + MSM (% in label), 72 hours, listed as 14% MSM",2.0 Log
same,"survival, Average Log","[4]; 12 μg/ml oxacillin + MSM (% in label), 72 hours, listed as 15% MSM",2.3 Log
same,log reduction in the number of cfu/ml,"[4]; 12 μg/ml oxacillin, 48 hours",4.5 log
same,log reduction in the number of cfu/ml,"[4]; 12 μg/ml oxacillin, 72 hours",4.5 log
same,log reduction in the number of cfu/ml,"[4]; 12 μg/ml oxacillin, MSM concentrations of 12%-16%, 72 hours",1 log
same,average log reduction in the number of cfu/ml,"[4]; 12 μg/ml oxacillin, all MSM concentrations, 24 hours",1.5 logs
same,average Log reduction in the number of cfu/ml,"[4]; 30 μg/ml and 60 μg/ml oxacillin, lower end of MSM concentrations, 24 hours",3 log
same,"survival, Average Log","[4]; 30 μg/ml oxacillin + MSM (% in label), 24 hours, listed as 5% MSM",2.51 Log
same,"survival, Average Log","[4]; 30 μg/ml oxacillin + MSM (% in label), 24 hours, listed as 6% MSM",2.46 Log
same,"survival, Average Log","[4]; 30 μg/ml oxacillin + MSM (% in label), 24 hours, listed as 7% MSM",2.98 Log
